Data as given in US20260041677A1, “COMPOSITIONS AND METHODS FOR TREATING ADENOID CYSTIC CARCINOMA” (ELEVAR THERAPEUTICS, INC., priority 2022, published 2026).
“And” between values parts separate entries of the source, which are not always exact repeats. Equal entries are not always repeated.

Tested on: recurrent or metastatic (R/M) adenoid cystic carcinoma (ACC)
Assay: Phase 2 single-arm study of rivoceranib in R/M ACC: response, DoR, PFS, TTP per RECIST V1.1
Assay type: in vivo, human
Description: Overall design: An ongoing Phase 2, multicenter, open-label, single-arm study was designed to evaluate the efficacy and safety of rivoceranib in patients with recurrent or metastatic (R/M) adenoid cystic carcinoma (ACC) of all anatomic sites of origin. The study was composed of an initial screening phase (up to 28 days), a treatment phase, and a follow-up phase.
Objectives: Primary objectives were to evaluate safety & tolerability, efficacy by objective response rate (ORR), best overall response (BOR), time to response, duration of response, disease control rate, and duration of disease control. Secondary objectives were to evaluate efficacy as measured by overall survival, progression-free survival and event-free survival. The primary efficacy endpoint was the ORR, defined as the proportion of patients who achieved confirmed complete response (CR) or partial response (PR) per Response Evaluation Criteria in Solid Tumors (RECIST) Version 1.1 (V1.1). The secondary efficacy endpoints were duration of response (DoR) assessed by the investigator and a blinded independent review committee (BIRC), progression-free survival (PFS) assessed at 6 months, 12 months, and 2 years by investigator and BIRC, Time to Progression (TTP) assessed by investigator and BIRC, and overall survival (OS) assessed at 1 and 2 years. Exploratory efficacy endpoints include ORR per CHOI response criteria (based on the journal article, Choi et al., Correlation of computed tomography and positron emission tomography in patients with metastatic gastrointestinal stromal tumor treated at a single institution with imatinib mesylate: proposal of new computed tomography response criteria. J Clin Oncol. 2007; 25(13): 1753-1759) by a blinded independent review […] (BIRC) and disease control rate (DCR) per RECIST V1.1 by Investigator and BIRC. Except for CHOI response criteria, all response endpoints were assessed per RECIST V1.1 by Investigator and BIRC.
Patients: The study was conducted at 11 study sites in the USA and South Korea. A total of 80 patients were enrolled and received at least 1 dose of study drug (rivoceranib). Fifty-three patients were enrolled in the USA and 27 patients were enrolled in Korea. Eligible patients were 18 years or older and were required to have histologically or cytologically confirmed R/M ACC of any anatomic location not amenable to curative surgery or radiotherapy. Due to the indolent nature of the disease, patients were required to have evidence of disease progression by RECIST V1.1 within the 6 months prior to study entry, evidenced by: ≥20% increase in radiologically or clinically measurable lesions or appearance of new lesions. Patients were required to have at least 1 measurable target lesion by RECIST V1.1. There were no restrictions on prior systemic therapies. Patients were permitted to have prior VEGFR TKI exposure if dosage was discontinued within 5 half-lives prior to rivoceranib treatment. The patients were permitted if they have an Eastern Cooperative Oncology Group (ECOG) performance status of 0 or 1. Patients with treated central nervous system metastases were permitted if they were stable for four weeks prior to study treatment. Eligible patients had documented primary diagnosis of solid tumor cancer of ACC for which anti-VEGFR-2 targeted therapy could be applicable. The majority of patients had primary tumors in the major (33.8%) or minor (58.8%) salivary glands; 6 patients (7.5%) had primary tumors in other locations: lung, breast, trachea, Cowper's gland, intracranial temporal lobe and lymph node. Median time from original ACC diagnosis was 69.62 months. The majority of patients (92.5%) had metastatic disease.
Dose determination: Enrolled patients initiated treatment with rivoceranib 700 mg daily (QD). Up to 3 levels of dose reduction for toxicity were permitted: 500 mg QD, 300 mg QD and 200 mg QD. Patients received treatment until disease progression, unacceptable toxicity, death or withdrawal of consent to treatment. […]

[1] = RECIST V1.1, Investigator, Systemic therapy-naïve N = 29, 700 mg QD start
[2] = RECIST V1.1, Investigator, Systemic therapy-treated N = 44, 700 mg QD start
[3] = RECIST V1.1, Investigator, Total N = 73, 700 mg QD start
[4] = RECIST V1.1, Investigator, Total N = 73, Kaplan-Meier, 700 mg QD start
[5] = RECIST V1.1, Investigator, VEGFRi-naïve N = 60, 700 mg QD start
[6] = RECIST V1.1, Investigator, VEGFRi-naïve N = 60, Kaplan-Meier, 700 mg QD start
[7] = RECIST V1.1, Investigator, VEGFRi-treated N = 13, 700 mg QD start
[8] = RECIST V1.1, Investigator, patients with ≥20% pre-study increase in lesions, N = 51
[9] = confirmed objective response by Investigator
[10] = within the 19.5-month follow-up, N = 80

With `N#CC1(c2ccc(NC(=O)c3cccnc3NCc3ccncc3)cc2)CCCC1` [Rivoceranib, N-[4-(1-cyanocyclopentyl)phenyl]-2-{[(pyridin-4-yl)methyl]amino}pyridine-3-carboxamide] as the molecule, how does the “DoR 25th percentile” value [1] read?
The value was 7.4 months.

And the “DoR 75th percentile” value [1]?
The value was 14.9 months.

What about the “DoR Median” value [1] of the same molecule?
The value was 13.5 months.

And the “BOR: Complete Response” value [2]?
The value was 0%.

And the “BOR: Not Evaluable” value [2]?
Its value is 0%.

What about the “BOR: Partial Response” value [2] of the same molecule?
Its value is “(11.4) %”.

What about the “BOR: Progressive Disease” value [2] of the same molecule?
The value was “(11.4) %”.

What about the “BOR: Stable Disease” value [2] of the same molecule?
The value was “(77.3) %”.

And the “DoR 25th percentile” value [2]?
The value was 14.6 months.

And the “DoR 75th percentile” value [2]?
The value was 17.3 months.

And the “DoR Median” value [2]?
The value was 17.3 months.

What about the “BOR: Complete Response” value [3] of the same molecule?
The value was 0%.

And the “BOR: Not Evaluable” value [3]?
Its value is 0%.

And the “Median TTP (95% CI)” value [3]?
The value was 9.1 (8.5-13.8) months.

What about the “PFS landmark 6-months, % (95% CI)” value [3] of the same molecule?
The value was 76.3 (64.2-84.8) %.

What about the “PFS landmark 12-months, % (95% CI)” value [3] of the same molecule?
The value was 39.7 (27.4-51.6) %.

What about the “DoR 25th percentile” value [4] of the same molecule?
The value was 11.9 months.

What about the “DoR 75th percentile” value [4] of the same molecule?
Its value is 17.3 months.

And the “DoR Median (95% CI)” value [4]?
The value was 14.9 months and 14.9 (4.9, 17.3) months.

What about the “Median PFS (95% CI)” value [4] of the same molecule?
Its value is 9.0 (7.5-12.8) months.

What about the “BOR: Complete Response” value [5] of the same molecule?
The value was 0%.

What about the “BOR: Not Evaluable” value [5] of the same molecule?
Its value is 0%.

What about the “BOR: Partial Response” value [5] of the same molecule?
Its value is 11 (18.3) %.

And the “BOR: Progressive Disease” value [5]?
Its value is 6 (10.0) %.

What about the “BOR: Stable Disease” value [5] of the same molecule?
Its value is 43 (71.7) %.

What about the “DCR (disease control rate, CR, PR or SD ≥3 months)” value [5] of the same molecule?
The value was 37 (61.7) %.

And the “Median PFS (95% CI)” value [5]?
Its value is 9.0 (7.3-12.8) months.

What about the “Median TTP (95% CI)” value [5] of the same molecule?
Its value is 9.0 (7.3-13.5) months.

What about the “ORR (objective response rate)” value [5] of the same molecule?
Its value is 11 (18.3) %.

What about the “PFS landmark 6-months, % (95% CI)” value [5] of the same molecule?
The value was 74.5 (60.7-84.1) %.

And the “PFS landmark 12-months, % (95% CI)” value [5]?
Its value is 38.7 (25.5-51.8) %.

What about the “DoR 25th percentile” value [6] of the same molecule?
The value was 11.9 months.

And the “DoR 75th percentile” value [6]?
Its value is 17.3 months.

What about the “DoR Median (95% CI)” value [6] of the same molecule?
Its value is 14.9 (4.9, 17.3) months.

What about the “BOR: Complete Response” value [7] of the same molecule?
Its value is 0%.

And the “BOR: Not Evaluable” value [7]?
The value was 0%.

What about the “BOR: Partial Response” value [7] of the same molecule?
The value was 0%.

What about the “BOR: Progressive Disease” value [7] of the same molecule?
Its value is 2 (15.4) %.

And the “BOR: Stable Disease” value [7]?
The value was 11 (84.6) %.

And the “DCR (disease control rate, CR, PR or SD ≥3 months)” value [7]?
Its value is 10 (76.9) %.

What about the “Median PFS (95% CI)” value [7] of the same molecule?
Its value is 10.6 (7.1-17.7) months.

What about the “Median TTP (95% CI)” value [7] of the same molecule?
Its value is 16.4 (8.9-19.1) months.

What about the “ORR (objective response rate)” value [7] of the same molecule?
The value was 0%.

And the “PFS landmark 6-months, % (95% CI)” value [7]?
The value was 84.6 (51.2-95.9) %.

And the “PFS landmark 12-months, % (95% CI)” value [7]?
Its value is 43.0 (13.8-69.8) %.

And the “estimated PFS rate at 9 months” value (RECIST V1.1, Investigator, efficacy evaluable, 700 mg QD start)?
The value was 53.6%.

And the “Maximum Change in SOT During the first 6 Months on Treatment with Rivoceranib, Mean” value [8]?
Its value is −9.9 mm.

What about the “Maximum Change in SOT During the first 6 Months on Treatment with Rivoceranib, Median” value [8] of the same molecule?
The value was −7.0 mm.

And the “Maximum Change in SOT at Any Time on Treatment, Mean” value [8]?
The value was −10.4 mm.

And the “Maximum Change in SOT at Any Time on Treatment, Median” value [8]?
Its value is −8.0 mm.

What about the “patients with initial response observed at 100 mg” value [9] of the same molecule?
Its value is 1 patient.

What about the “patients with initial response observed at 200 mg” value [9] of the same molecule?
The value was 1.3%.

And the “patients with initial response observed at 300 mg” value [9]?
Its value is 4.1%.

And the “patients with initial response observed at 500 mg” value [9]?
Its value is 5.5%.

What about the “patients with initial response observed at 700 mg” value [9] of the same molecule?
The value was 2.7%.

And the “patients who died due to disease progression or cancer despite treatment” value [10]?
Its value is no less than 21.3%.

And the “patients who had disease progression despite treatment” value [10]?
Its value is 48.5%.
